Experimental data from US20120040951A1, “HETEROARYL COMPOUNDS USEFUL AS RAF KINASE INHIBITORS” (priority 2008, published 2012).

Assays:
[1] = system: phospho-ERK in melanoma derived WM-266-4 cells; assay: Mechanistic cellular assay for Raf kinase activity (phospho-ERK, Bio-Plex); assay type: cell-based; settings: Homo sapiens, treated 1-2 hr at 37° C., serum free medium, read-out: pERK EC50
Procedure, shortened: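 WM-266-4 melanoma cells (wild-type/V600D BRaf) grown overnight in 10% FBS RPMI, then treated 1–2 h at 37 °C in serum-free RPMI with eight 3-fold dilutions of compound (from 5 mM DMSO stock, 1000× dilution). Lysate phospho-ERK1,2 quantified by Bio-Plex bead immunoassay.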

[2] = molecular target: V599E Raf (Homo sapiens, UniProt P15056, V600E); assay: Biochemical FRET assay, mutant Raf (phosphorylation of MEK); settings: 0.125 nM V599E Raf, 100 nM biotin-MEK, 25 μM ATP, read-out: Raf (mut) inhibition
Protocol: (1) Biochemical FRET Assay […]
Inhibitors were diluted 4-fold in 100% DMSO and added to a final concentration of 10 μM to 40 μM to a solution containing 100 nM biotin-MEK, 0.125 nM V599E Raf in 50 mM HEPES, pH 7.4, 60 mM NaCl, 3 mM MgCl2, 2 mM DTT, 0.25 mM MnCl2, 0.01% BSA, and 0.01% Tween-20 and incubated for 20 minutes at room temperature. The kinase reaction was started by the addition of 25 μM ATP to a final volume of 45 μl and allowed to progress for 60 minutes. The reaction was stopped with 15 mM EDTA and 20 nM Streptavidin-APC, 2.5 nM Polyclonal anti p-MEK1/2 (Ser217/221), 2.5 nM Eu-labeled anti-rabbit IgG were added in Lance detection buffer and 5% Superblock in PBS for a final volume of 100 μl. The detection reaction was incubated for 90 minutes at room temperature and then read on an Analyst plate reader using standard TR-FRET (time resolved fluorescence resonance energy transfer) settings for Eu and APC.
Compounds having an activity designated as “A” provided an IC50≦100 nM; compounds having an activity designated as “B” provided an IC50 of 100-1000 nM; and compounds having an activity designated as “C” provided an IC50 of 1000-10,000 nM.

Chain of V599E Raf (P15056 whole entry V600E): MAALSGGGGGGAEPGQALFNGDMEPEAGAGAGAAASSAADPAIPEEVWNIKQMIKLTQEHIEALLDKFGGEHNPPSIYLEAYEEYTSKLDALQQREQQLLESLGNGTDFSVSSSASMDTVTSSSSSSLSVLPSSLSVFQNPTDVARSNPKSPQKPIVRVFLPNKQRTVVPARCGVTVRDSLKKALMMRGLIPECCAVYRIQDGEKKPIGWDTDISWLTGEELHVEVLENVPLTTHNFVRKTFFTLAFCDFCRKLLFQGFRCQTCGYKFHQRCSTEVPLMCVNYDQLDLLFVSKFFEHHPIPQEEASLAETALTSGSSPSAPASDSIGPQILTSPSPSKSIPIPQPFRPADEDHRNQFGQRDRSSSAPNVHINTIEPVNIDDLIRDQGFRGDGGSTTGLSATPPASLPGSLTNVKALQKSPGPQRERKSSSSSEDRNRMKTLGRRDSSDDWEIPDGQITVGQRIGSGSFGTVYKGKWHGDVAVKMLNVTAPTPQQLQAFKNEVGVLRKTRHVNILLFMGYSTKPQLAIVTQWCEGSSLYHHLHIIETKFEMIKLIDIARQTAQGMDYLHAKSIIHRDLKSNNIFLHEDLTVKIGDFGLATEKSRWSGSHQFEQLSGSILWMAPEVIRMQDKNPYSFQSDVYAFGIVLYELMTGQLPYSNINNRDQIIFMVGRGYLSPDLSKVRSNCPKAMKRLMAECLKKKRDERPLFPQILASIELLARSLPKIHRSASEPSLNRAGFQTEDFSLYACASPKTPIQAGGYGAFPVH

Row | SMILES | EC50 [1] [µM] | IC50 [2] [µM]
1 | Cc1ccc(NC(=O)c2cc([C@@H](C)NC(=O)c3cnn4cc(-c5ccncn5)cnc34)no2)cc1C(F)(F)F [Example 333] | 0.1 to 1 | 0.1 to 1
2 | Cc1nc2cc(C(=O)N[C@H](C)c3ncc(C(=O)Nc4cc(C(F)(F)F)c(Cl)cn4)s3)ccc2n1CCO [Example 52] | 1 to 10 | ≤ 0.1
3 | C[C@@H](NC(=O)c1cnn(Cc2ccccc2)c1)c1ncc(C(=O)Nc2cc(C(F)(F)F)c(Cl)cn2)s1 [Example 118] | 1 to 10 | ≤ 0.1
4 | CC(NC(=O)c1cc2c(cn1)ncn2C)c1cnc(Nc2cc(C#N)cc(C(C)(C)C)c2)s1 (centres unmarked) [Example 350] | 1 to 10 | ≤ 0.1
5 | Cc1nn(C)c(C)c1C(=O)N[C@H](C)c1ncc(C(=O)Nc2cc(C(F)(F)F)c(Cl)cn2)s1 [Example 110] | 1 to 10 | ≤ 0.1
6 | CC(NC(=O)c1cc(N)ccn1)c1ncc(C(=O)Nc2cc(C(F)(F)F)c(Cl)cn2)s1 (centres unmarked) [Example 87] | 1 to 10 | 0.1 to 1
7 | C[C@@H](NC(=O)c1cn(-c2ccncc2)cn1)c1ncc(C(=O)Nc2cc(C(F)(F)F)c(Cl)cn2)s1 [Example 148] | 1 to 10 | ≤ 0.1
8 | CC(NC(=O)c1ccc2ncsc2c1)c1cnc(Nc2ccc(C(F)(F)F)cc2)s1 (centres unmarked) [Example 74] | 1 to 10 | ≤ 0.1
9 | Cc1nc2cc(C(=O)N[C@H](C)c3ncc(C(=O)Nc4cc(C(F)(F)F)c(Cl)cn4)s3)ccc2n1C [Example 68] | 1 to 10 | ≤ 0.1
10 | CC(NC(=O)c1cc2c(cn1)ncn2C)c1cnc(Nc2ccc(F)c(S(=O)(=O)C(F)(F)F)c2)cn1 (centres unmarked) [Example 268] | ≤ 0.1 | ≤ 0.1
11 | CC(NC(=O)c1cc2c(cn1)ncn2C)c1cnc(Nc2ccc(C(F)(F)F)cc2)s1 (centres unmarked) [Example 2] | ≤ 0.1 | ≤ 0.1
12 | C[C@@H](NC(=O)c1csc(N)n1)c1ncc(C(=O)Nc2cc(C(F)(F)F)c(Cl)cn2)s1 [Example 98] | 1 to 10 | ≤ 0.1
13 | CC(NC(=O)c1cnn2ccccc12)c1cnc(Nc2ccc(C(F)(F)F)cc2)s1 (centres unmarked) [Example 224] | 0.1 to 1 | ≤ 0.1
14 | COCCn1c(C(=O)NC(C)c2cnc(Nc3ccc(C(F)(F)F)cc3)s2)cnc1C (centres unmarked) [Example 140] | 1 to 10 | ≤ 0.1
15 | COc1cc(C(F)(F)F)ccc1Nc1ncc(C(C)NC(=O)c2cc3c(cn2)ncn3C)s1 (centres unmarked) [Example 244] | ≤ 0.1 | ≤ 0.1
16 | CC(NC(=O)c1cc2c(cn1)ncn2C)c1cnc(Nc2ccc(C(F)(F)F)cc2)cn1 (centres unmarked) [Example 35] | ≤ 0.1 | ≤ 0.1
17 | Cc1c(C(=O)NC(C)c2cnc(Nc3ccc(C(F)(F)F)cc3)s2)cnn1C (centres unmarked) [Example 82] | 0.1 to 1 | ≤ 0.1
18 | C[C@@H](NC(=O)c1ccc(N)cc1)c1ncc(C(=O)Nc2cc(C(F)(F)F)c(Cl)cn2)s1 [Example 54] | 1 to 10 | 0.1 to 1
19 | CC(NC(=O)c1cc2ncn(C)c2cn1)c1cnc(Nc2ccc(C(F)(F)F)cc2)s1 (centres unmarked) [Example 1] | 1 to 10 | ≤ 0.1
20 | CC(NC(=O)c1cc2c(cn1)ncn2C)c1cnc(Nc2cccc(C(C)(C)C(F)(F)F)c2)cn1 (centres unmarked) [Example 273] | ≤ 0.1 | ≤ 0.1
21 | C[C@@H](NC(=O)c1cnc2n1CCCN2C)c1ncc(C(=O)Nc2cc(C(F)(F)F)c(Cl)cn2)s1 [Example 167] | 0.1 to 1 | ≤ 0.1
22 | CCN1CC[C@H](n2cnc3cnc(C(=O)N[C@@H](C)c4cnc(Nc5ccc(C(F)(F)F)cc5)s4)cc32)C1 [Example 33] | 0.1 to 1 | ≤ 0.1
23 | CCc1[nH]ncc1C(=O)N[C@H](C)c1ncc(C(=O)Nc2cc(C(F)(F)F)c(Cl)cn2)s1 [Example 125] | 0.1 to 1 | 0.1 to 1

Row | SMILES | EC50 [1] [µM] | IC50 [2] [µM]
24 | CC(NC(=O)c1cc2c(cn1)ncn2C)c1cnc(Nc2cccc(S(=O)(=O)C(F)(F)F)c2)cn1 (centres unmarked) [Example 243] | ≤ 0.1 | ≤ 0.1
25 | CC(NC(=O)c1cc2c(cn1)ncn2C1CCC1)c1cnc(Nc2ccc(C(F)(F)F)nc2)s1 (centres unmarked) [Example 292] | ≤ 0.1 | ≤ 0.1
26 | Cc1cc2nc(NC(=O)c3cc([C@@H](C)NC(=O)c4cnn5ccccc45)no3)[nH]c2cc1C [Example 219] | 0.1 to 1 | 0.1 to 1
27 | CC(NC(=O)c1cc2c(cn1)ncn2C1CNC1)c1cnc(Nc2ccc(C(F)(F)F)cc2)cn1 (centres unmarked) [Example 179] | 0.1 to 1 | ≤ 0.1
28 | C[C@@H](NC(=O)c1cc2c(cn1)ncn2C1CN(C(=O)OC(C)(C)C)C1)c1cnc(Nc2ccc(C(F)(F)F)cc2)s1 [Example 24] | ≤ 0.1 | ≤ 0.1
29 | CC(NC(=O)c1cnn(C)c1N)c1cnc(Nc2ccc(C(F)(F)F)cc2)s1 (centres unmarked) [Example 108] | 0.1 to 1 | ≤ 0.1
30 | C[C@@H](NC(=O)c1ccc2sccc2c1)c1ncc(C(=O)Nc2cc(C(F)(F)F)c(Cl)cn2)s1 [Example 67] | 1 to 10 | 0.1 to 1
31 | CC(NC(=O)c1cc2c(cn1)ncn2C)c1cnc(Nc2ccc(C(F)(F)F)cc2Cl)cn1 (centres unmarked) [Example 265a] | 0.1 to 1 | ≤ 0.1
32 | CC(NC(=O)c1cc2c(cn1)ncn2C1CCC1)c1cnc(Nc2ccc(C(F)(F)F)cc2)cn1 (centres unmarked) [Example 175] | ≤ 0.1 | ≤ 0.1
33 | CCN1CC(n2cnc3cnc(C(=O)N[C@H](C)c4cnc(Nc5ccc(C(F)(F)F)cc5)cn4)cc32)C1 (stereo in doubt) [Example 180] | 0.1 to 1 | ≤ 0.1
34 | CC(NC(=O)c1cc2c(cn1)ncn2CCO)c1cnc(Nc2ccc(C(F)(F)F)cc2)s1 (centres unmarked) [Example 25] | 0.1 to 1 | ≤ 0.1
35 | Cc1ccc(NC(=O)c2cc([C@H](C)NC(=O)c3cnn4ccccc34)on2)cc1C(F)(F)F [Example 227] | 0.1 to 1 | ≤ 0.1
36 | C[C@@H](NC(=O)c1cc2c(cn1)ncn2[C@@H]1CCNC1)c1cnc(Nc2ccc(C(F)(F)F)cc2)s1 [Example 26] | 0.1 to 1 | ≤ 0.1
37 | C[C@@H](NC(=O)c1cnn2ccccc12)c1cc(C(=O)Nc2ccc(Cl)c(C(F)(F)F)c2)on1 [Example 220] | 0.1 to 1 | ≤ 0.1
38 | CC(NC(=O)c1cc2c(cn1)ncn2C)c1cnc(Nc2cc(S(=O)(=O)C(F)(F)F)ccc2Cl)cn1 (centres unmarked) [Example 276] | ≤ 0.1 | ≤ 0.1
39 | C[C@@H](NC(=O)c1cnc(C#N)n1C)c1ncc(C(=O)Nc2cc(C(F)(F)F)c(Cl)cn2)s1 [Example 150] | 1 to 10 | ≤ 0.1
40 | C[C@@H](NC(=O)c1cc2c(cn1)ncn2[C@H]1CCNC1)c1cnc(Nc2ccc(C(F)(F)F)cc2)s1 [Example 31] | 0.1 to 1 | ≤ 0.1
41 | CCn1cnc2cnc(C(=O)NC(C)c3cnc(Nc4cnc(C(C)(C)C)nc4)s3)cc21 (centres unmarked) [Example 285] | ≤ 0.1 | ≤ 0.1
42 | CC(NC(=O)c1ccc2ncccc2c1)c1cnc(Nc2ccc(C(F)(F)F)cc2)s1 (centres unmarked) [Example 72] | 1 to 10 | ≤ 0.1
43 | Cc1ccc(NC(=O)c2cc([C@@H](C)NC(=O)c3cnn4cccnc34)no2)cc1C(F)(F)F [Example 221] | 0.1 to 1 | 0.1 to 1
44 | CCN1CC[C@@H](n2cnc3cnc(C(=O)N[C@H](C)c4cnc(Nc5ccc(C(F)(F)F)cc5)s4)cc32)C1 [Example 28] | ≤ 0.1 | ≤ 0.1
45 | CC(NC(=O)c1cc2c(cn1)ncn2C)c1cnc(Nc2ccc(C(F)(F)F)cn2)cn1 (centres unmarked) [Example 262] | 0.1 to 1 | ≤ 0.1
46 | CCN1CCn2c(C(=O)NC(C)c3cnc(Nc4ccc(C(F)(F)F)cc4)s3)cnc2C1 (centres unmarked) [Example 318] | 1 to 10 | ≤ 0.1
